In patent US20240158446A1, “CYCLIC COMPOUND HAVING SELECTIVE INHIBITORY ACTION ON KRAS OVER HRAS AND NRAS” (CHUGAI SEIYAKU KABUSHIKI KAISHA, priority 2021, published 2024):
pIC50, pKd: −log10 of the molar value. Read-outs that look alike come from different tables or passages of the source. Where a SMILES comes first, the peptide text is derived from it. Bridges are numbered along the chain shown (N, C = ends). [ ]: non-standard residue; d: D form. The star is where a group is joined. hPhe(3-Cl-4-CF3) = N[C@@H](CCc1ccc(C(F)(F)F)c(Cl)c1)C(=O)O; NPrPhe(4-CF3) = CCCN[C@@H](Cc1ccc(C(F)(F)F)cc1)C(=O)O; NMeGly(cPent) = CN[C@H](C(=O)O)C1CCCC1; NMeD = CN[C@@H](CC(=O)O)C(=O)O; NMeL = CN[C@@H](CC(C)C)C(=O)O; Morpholide = C1CN(*)CCO1; Ac5c = NC1(C(=O)O)CCCC1; Sar = CNCC(=O)O

Assays:
[1] = target: GDP-bound HRAS wild-type protein (Homo sapiens, UniProt P01112); assay: Binding to HRAS by surface plasmon resonance (SPR), Single Cycle Kinetics; settings: for HRAS/KRAS (ratio of KD value with respect to GDP-bound HRAS wild-type protein to KD value with respect to KRAS): SPR KD ratio HRAS/KRAS, class symbols; for HRAS/KRAS (ratio of KD value for HRAS to KD value for KRAS): GDP-bound HRAS wild-type protein vs GDP-bound KRAS wild-type protein
[2] = tested on: human lung cancer strain NCI-H441;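 note: cell proliferation inhibition after four days measured by CellTiter-Glo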
[3] = target: GDP-bound KRAS wild-type protein (Homo sapiens, UniProt P01116); assay: Binding to KRAS by surface plasmon resonance (SPR), Single Cycle Kinetics
[4] = target: GDP-bound NRAS wild-type protein (Homo sapiens, UniProt P01111); assay: Binding to NRAS by surface plasmon resonance (SPR), Single Cycle Kinetics; settings: for NRAS/KRAS (ratio of KD value with respect to GDP-bound NRAS wild-type protein to KD value with respect to KRAS): SPR KD ratio NRAS/KRAS, class symbols; for NRAS/KRAS (ratio of KD value for NRAS to KD value for KRAS): GDP-bound NRAS wild-type protein vs GDP-bound KRAS wild-type protein
[5] = SPR Single Cycle Kinetics, GDP-bound KRAS wild-type protein, 1:1 binding model, read-out: KRAS KD
[6] = SPR, Single Cycle Kinetics, GDP-bound KRAS wild-type protein, read-out: KRAS KD
[7] = SPR, Single Cycle Kinetics, 1:1 binding model, GDP-bound KRAS wild-type protein, read-out: KRAS KD

Chain of GDP-bound HRAS wild-type protein (P01112 whole entry): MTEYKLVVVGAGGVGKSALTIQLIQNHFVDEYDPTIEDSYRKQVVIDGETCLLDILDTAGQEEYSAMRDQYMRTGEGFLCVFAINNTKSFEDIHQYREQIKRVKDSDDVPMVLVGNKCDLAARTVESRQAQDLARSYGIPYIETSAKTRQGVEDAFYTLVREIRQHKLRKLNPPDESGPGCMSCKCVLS
Chain of GDP-bound KRAS wild-type protein (P01116 whole entry): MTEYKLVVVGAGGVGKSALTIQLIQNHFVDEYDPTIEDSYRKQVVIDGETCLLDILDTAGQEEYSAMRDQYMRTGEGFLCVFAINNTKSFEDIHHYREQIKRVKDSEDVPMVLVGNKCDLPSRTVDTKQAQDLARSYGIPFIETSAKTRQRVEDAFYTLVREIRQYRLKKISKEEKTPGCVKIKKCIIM
Chain of GDP-bound NRAS wild-type protein (P01111 whole entry): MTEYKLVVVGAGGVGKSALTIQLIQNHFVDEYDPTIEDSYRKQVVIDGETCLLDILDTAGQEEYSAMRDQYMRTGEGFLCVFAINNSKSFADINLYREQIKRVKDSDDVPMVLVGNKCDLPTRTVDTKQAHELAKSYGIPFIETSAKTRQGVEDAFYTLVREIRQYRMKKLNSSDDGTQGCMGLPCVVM

pIC50 [2]	pKd [3, 5]	pKd [3, 7]	SMILES	HRAS/KRAS (ratio of KD value for HRAS to KD value for KRAS) ([1]; SPR, KD ratio class)	NRAS/KRAS (ratio of KD value for NRAS to KD value for KRAS) ([4]; SPR, KD ratio class)	other results
7.25	9.07	–	CCC[C@H]1C(=O)N[C@@H]([C@@H](C)CC)C(=O)N(C)CC(=O)N(C)[C@H]2C/C=C\CCN(C2=O)[C@@H](Cc2ccc(C(F)(F)F)cc2)C(=O)N(C)CC(=O)N[C@@H](CCc2ccc(C(F)(F)F)c(OC)c2)C(=O)N2C[C@H](OCC)C[C@H]2C(=O)NC2(CC(C)(C)C2)C(=O)N(C)[C@@H](CC2CCC2)C(=O)N(C)[C@H](C(=O)N(C)C)CC(=O)N1C [PP2764]	–	–	HRAS/KRAS (ratio of KD value with respect to GDP-bound HRAS wild-type protein to KD value with respect to KRAS) [1]: A (a compound having 10 or more and less than 20 is denoted as A); NRAS/KRAS (ratio of KD value with respect to GDP-bound NRAS wild-type protein to KD value with respect to KRAS) [4]: A (a compound having 10 or more and less than 20 is denoted as A)
–	–	–	CCC[C@H]1C(=O)N[C@@H]([C@@H](C)CC)C(=O)N(C2CC2)CC(=O)N(C)[C@H]2C/C=C\CCN(C2=O)[C@@H](Cc2ccc(C(F)(F)F)cc2)C(=O)N(C)CC(=O)N[C@@H](CCc2cc(F)c(C(F)(F)F)c(F)c2)C(=O)N2C[C@H](OCC)C[C@H]2C(=O)N(C)C2(CCC2)C(=O)N(C)[C@@H](C2CCCC2)C(=O)N(C)[C@H](C(=O)N2CCCC2)CC(=O)N1C [PP3112]	–	–	HRAS/KRAS (ratio of KD value for HRAS to KD value for KRAS) ([1]; SPR): B (a compound having 3 or more and less than 10 is denoted as B); ratio of the KD value with respect to GDP-bound HRAS wild-type protein to the KD value with respect to KRAS ([1]; SPR, KD(HRAS)/KD(KRAS)): B (a compound having 3 or more and less than 10 is denoted as B); pIC50 ([2]; read-out: NCI-H441 cell proliferation inhibitory activity, 50% proliferation inhibitory concentration (IC50 value), NCI-H441, four days, CellTiter-Glo): 7.49; pKd ([3]; SPR, Single Cycle Kinetics, 1:1 binding model, read-out: KD value with respect to GDP-bound KRAS wild-type protein): 8.51; pKd [3, 6]: 8.51; NRAS/KRAS (ratio of KD value for NRAS to KD value for KRAS) ([4]; SPR): A (a compound having 10 or more and less than 20 is denoted as A); ratio of the KD value with respect to GDP-bound NRAS wild-type protein to the KD value with respect to KRAS ([4]; SPR, KD(NRAS)/KD(KRAS)): A (a compound having 10 or more and less than 20 is denoted as A)
7.82	9.70	–	CCCN1C(=O)CN(C)C(=O)CN(C)C(=O)[C@H]([C@@H](C)CC)NC(=O)[C@H](CC(C)C)N(C)C(=O)C[C@@H](C(=O)N2CCOCC2)N(C)C(=O)[C@H](C2CCCC2)N(C)C(=O)C2(CCCC2)NC(=O)CN(C)C(=O)[C@H](CCc2ccc(C(F)(F)F)c(Cl)c2)NC(=O)CN(C)C(=O)[C@@H]1Cc1ccc(C(F)(F)F)cc1 [PP0266] ([NMeL]I[Sar][Sar][NPrPhe(4-CF3)][Sar][hPhe(3-Cl-4-CF3)][Sar][Ac5c][NMeGly(cPent)][NMeD]-Morpholide; lactam N-11)	–	–	HRAS/KRAS (ratio of KD value for HRAS to KD value for KRAS) ([1]; SPR): C (A compound having a KD ratio of 0.1 or more and less than 3 is denoted as C); NRAS/KRAS (ratio of KD value for NRAS to KD value for KRAS) ([4]; SPR): B (a compound having 3 or more and less than 10 is denoted as B)
6.92	–	–	CCOC[C@H]1C(=O)N[C@@H]([C@@H](C)OCC)C(=O)N2CCC[C@H]2C(=O)N(C)[C@H]2C/C=C\CCN(C2=O)[C@@H](Cc2ccc(C)cc2)C(=O)N(C)CC(=O)N[C@@H](CCc2ccc(C(F)(F)F)c(OC)c2)C(=O)N2C[C@@H](C)C[C@H]2C(=O)NC2(CC(C)(C)C2)C(=O)N(C)[C@@H](C2CCCC2)C(=O)N(C)[C@H](C(=O)N(C)CC)CC(=O)N1C [PP2433]	–	–	HRAS/KRAS (ratio of KD value for HRAS to KD value for KRAS) ([1]; SPR): A (a compound having 10 or more and less than 20 is denoted as A); pKd [3, 6]: 8.68; NRAS/KRAS (ratio of KD value for NRAS to KD value for KRAS) ([4]; SPR): AA (a compound having 20 or more is denoted as AA)
7.94	–	9.89	CCO[C@@H]1C[C@H]2C(=O)NC3(CCC3)C(=O)N(C)[C@@H](C3CCCC3)C(=O)N(C)[C@H](C(=O)N3CCCC3)CC(=O)N(C)[C@@H](CC(F)F)C(=O)N[C@@H]([C@@H](C)CC)C(=O)N(C)CC(=O)N(C)[C@H]3C/C=C\CCN(C3=O)[C@@H](Cc3ccc(C(F)(F)F)cc3)C(=O)N(C)CC(=O)N[C@@H](CCc3cc(F)c(C(F)(F)F)c(F)c3)C(=O)N2C1 [PP1298]	A (a compound having 10 or more and less than 20 is denoted as A)	AA (a compound having 20 or more is denoted as AA)	–
7.49	9.31	–	CCC[C@H]1C(=O)N[C@@H]([C@@H](C)CC)C(=O)N(C)CC(=O)N(C)[C@H]2C/C=C\CCN(C2=O)[C@@H](Cc2ccc(C(F)F)cc2)C(=O)N(C)CC(=O)N[C@@H](CCc2ccc(Cl)c(Cl)c2)C(=O)N2C[C@H](OC3CCC3)C[C@H]2C(=O)NC2(CC(C)(C)C2)C(=O)N(C)[C@@H](C(CC)CC)C(=O)N(C)[C@H](C(=O)N(C)C)CC(=O)N1C [PP2643]	–	–	HRAS/KRAS (ratio of KD value with respect to GDP-bound HRAS wild-type protein to KD value with respect to KRAS) [1]: A (a compound having 10 or more and less than 20 is denoted as A); NRAS/KRAS (ratio of KD value with respect to GDP-bound NRAS wild-type protein to KD value with respect to KRAS) [4]: AA (a compound having 20 or more is denoted as AA)
6.73	8.55	–	CCO[C@@H]1C[C@H]2C(=O)NC3(CC(C)(C)C3)C(=O)N(C)[C@@H](C(CC)CC)C(=O)N(C)[C@H](C(=O)N(C)C)CC(=O)N(C)[C@@H](COC)C(=O)N[C@@H]([C@@H](C)CC)C(=O)N(C3CC3)CC(=O)N(C)[C@H]3C/C=C\CCN(C3=O)[C@@H](CC3CCC(F)(F)CC3)C(=O)N(C)CC(=O)N[C@@H](CCc3ccc(Cl)c(Cl)c3)C(=O)N2C1 [PP2569]	–	–	HRAS/KRAS (ratio of KD value with respect to GDP-bound HRAS wild-type protein to KD value with respect to KRAS) [1]: A (a compound having 10 or more and less than 20 is denoted as A); NRAS/KRAS (ratio of KD value with respect to GDP-bound NRAS wild-type protein to KD value with respect to KRAS) [4]: AA (a compound having 20 or more is denoted as AA)
7.64	–	10.06	CCO[C@@H]1C[C@H]2C(=O)NC3(CCC3)C(=O)N(C)[C@@H](C3CCCC3)C(=O)N(C)[C@H](C(=O)N3CCCC3)CC(=O)N(C)[C@@H](C)C(=O)N[C@@H]([C@@H](C)CC)C(=O)N(C)CC(=O)N(C)[C@H]3C/C=C\CCN(C3=O)[C@@H](Cc3ccc(C(F)(F)F)cc3)C(=O)N(C)CC(=O)N[C@@H](CCc3cc(F)c(C(F)(F)F)c(F)c3)C(=O)N2C1 [PP1297, (2S,8S,12R,14S,20S,23S,27S,30S,36S,38Z)-20-cyclopentyl-8-[2-[3,5-difluoro-4-(trifluoromethyl)phenyl]ethyl]-12-ethoxy-4,19,22,26,27,32,35-heptamethyl-30-[(1S)-1-methylpropyl]-23-(pyrrolidine-1-carbonyl)-2-[[4-(trifluoromethyl)phenyl]methyl]spiro[1,4,7,10,16,19,22,26,29,32,35-undecazatricyclo[34.5.1.0^10,14]dotetracont-38-ene-17,1′-cyclobutane]-3,6,9,15,18,21,25,28,31,34,42-undecone]	A (a compound having 10 or more and less than 20 is denoted as A)	AA (a compound having 20 or more is denoted as AA)	–
6.99	–	9.72	CCO[C@@H]1C[C@H]2C(=O)NC3(CCC3)C(=O)N(C)[C@@H](C3CCCC3)C(=O)N(C)[C@H](C(=O)N3CCC3)CC(=O)N(C)[C@@H](CC)C(=O)N[C@@H]([C@@H](C)CC)C(=O)N(C)CC(=O)N(C)[C@H]3C/C=C\CCN(C3=O)[C@@H](CC3CCC(F)(F)CC3)C(=O)N(C)CC(=O)N[C@@H](CCc3cc(F)c(C(F)(F)F)c(F)c3)C(=O)N2C1 [PP1444]	A (a compound having 10 or more and less than 20 is denoted as A)	A (a compound having 10 or more and less than 20 is denoted as A)	–
8.05	–	10.21	CCC[C@H]1C(=O)N[C@@H]([C@@H](C)CC)C(=O)N(C)CC(=O)N(C)[C@H]2C/C=C\CCN(C2=O)[C@@H](Cc2ccc(C(F)(F)F)cc2)C(=O)N(C)CC(=O)N[C@@H](CCc2ccc(C(F)(F)F)c(OC)c2)C(=O)N2C[C@H](OCC)C[C@H]2C(=O)NC2(CCC2)C(=O)N(C)[C@@H](C2CCCC2)C(=O)N(C)[C@H](C(=O)N(C)C)CC(=O)N1C [PP1244, (2S,8S,12R,14S,20S,23S,27S,30S,36S,38Z)-20-cyclopentyl-12-ethoxy-8-[2-[3-methoxy-4-(trifluoromethyl)phenyl]ethyl]-N,N,4,19,22,26,32,35-octamethyl-30-[(1S)-1-methylpropyl]-3,6,9,15,18,21,25,28,31,34,42-undecaoxo-27-propyl-2-[[4-(trifluoromethyl)phenyl]methyl]spiro[1,4,7,10,16,19,22,26,29,32,35-undecazatricyclo[34.5.1.0^10,14]dotetracont-38-ene-17,1′-cyclobutane]-23-carboxamide]	B (a compound having 3 or more and less than 10 is denoted as B)	A (a compound having 10 or more and less than 20 is denoted as A)	–

SMILES	pIC50 [2]	pKd [3, 5]	pKd [3, 7]	HRAS/KRAS (ratio of KD value for HRAS to KD value for KRAS) ([1]; SPR, KD ratio class)	NRAS/KRAS (ratio of KD value for NRAS to KD value for KRAS) ([4]; SPR, KD ratio class)	other results
CCC[C@H]1C(=O)N[C@@H]([C@@H](C)CC)C(=O)N(C)CC(=O)N(C)[C@H]2C/C=C\CCN(C2=O)[C@@H](Cc2ccc(C(F)(F)F)cc2)C(=O)N(C)CC(=O)N[C@@H](CCc2cc(F)c(C(F)(F)F)c(F)c2)C(=O)N2C[C@H](OCC)C[C@H]2C(=O)NC2(CCC2)C(=O)N(C)[C@@H](C2CCCC2)C(=O)N(C)[C@H](C(=O)N2CC3CCC(C2)O3)CC(=O)N1C [PP1315]	7.46	–	9.47	A (a compound having 10 or more and less than 20 is denoted as A)	AA (a compound having 20 or more is denoted as AA)	–
